Measured values from patent publication US20210008229A1, “TARGETED PHOTOACOUSTIC AGENTS AND USES THEREOF” (McMaster University, priority 2019, published 2021).
≈ marks a conversion by molar mass, not a printed value.

Assays:
[1] = target: T1, bovine serum albumin (BSA) (Bos taurus, UniProt P02769); assay: preliminary albumin binding study (absorbance and emission with BSA); settings: absorbance and emission of 5 with varying concentrations of BSA
T1 construct: purchased Sigma-Aldrich
Experimental: When experiments were performed at high dye concentrations, aggregation completely quenches the fluorescence signal, which can be restored through the addition of albumin.

[2] = test system: 143B human osteosarcoma xenografts; assay: in vivo photoacoustic imaging of tumor xenografts; set-up: species or system BALB/c nu/nu mice; settings: 1 hour post injection versus background before injection; 200 μL of 5 (1 mg)
Experimental: Red in color images=oxyhemoglobin, Blue in color images=deoxyhemoglobin and Green in color images=the dye-tetrazine conjugate according to an embodiment of the present application. The dashed white lines outline the tumor.
Female BALB/c […] mice (Charles River Laboratories, Kingston, N.Y.) at 4-6 weeks of age were sterile housed and maintained at 24° C. with a 12 h light/dark cycle and were provided autoclaved food and water ad libitum. All procedures were conducted according to the guidelines of the Committee for Research and Ethical Issues of the International Association for the Study of Pain, and guidelines established by the Canadian Council on Animal Care and the McMaster University Animal Research Ethics Board. Female 10-11 week old BALB/c nu/nu mice (Charles River Laboratories, Kingston, N.Y.) were injected with 2.0×10^6 143 B cells in Matrigel:Dulbecco's phosphate-buffered saline (DPBS) (1:1) subcutaneously into the right flank. Photoacoustic studies were performed 10 days following tumor inoculation.
Photoacoustic imaging was performed using Vevo LAZR-X (FUJIFILM VisualSonics Inc., Toronto, ON, Canada) Imaging system equipped with a 680-970 nm laser. Mice were anaesthetized with isofluorane and set up on a platform that monitored the respiration rate and the heart rate of the mouse. The hair on the hindlimb was removed while the mouse was anaesthetized. […]

[3] = solubility / formulation concentration in 10% ethanol in saline; assay type: physicochemical; settings: aqueous with cosolvent or surfactant or cyclodextrin, read-out: concentration formulated (soluble)
Experimental: Prior to developing and testing a targeted derivative, in vivo imaging studies were performed with 5 and 143B human osteosarcoma xenografts. Compound 5 was soluble in 10% ethanol in saline and formulated at a concentration of 5 mg mL^−1, which conveniently is higher than what can be achieved for ICG (1 mg mL^−1). Prior to injection, tumors were imaged in order to separate the signals arising from oxygenated and deoxygenated hemoglobin, and 5, which are shown in red, blue and green respectively in color images of FIG. 8. Following administration of 200 μL of 5 (1 mg), signal arising from 5 was clearly visible in the tumor as early as 1 hour post-injection (FIG. 8, upper right image). Mice were sacrificed and the tumors were imaged ex vivo (FIG. 8, lower left image) where uptake of the dye within the tumor was clearly evident.

[4] = test system: sites of high calcium accretion; assay: in vivo photoacoustic imaging of the knee joint (calcium accretion); set-up: species or system Balb/c mice; settings: for photoacoustic signal in the knee (or shoulder) joints: in vivo, 1 hour post-injection
Experimental: The white arrows indicate the knee joint and light grey arrows indicate blood vessels.
Photoacoustic imaging was performed using Vevo LAZR-X (FUJIFILM VisualSonics Inc., Toronto, ON, Canada) Imaging system equipped with a 680-970 nm laser. Mice were anaesthetized with isofluorane and set up on a platform that monitored the respiration rate and the heart rate of the mouse. The hair on the hindlimb was removed while the mouse was anaesthetized. A 30-MHz, linear array ultrasound transducer with integrated fiber optic light delivery (LZ-400 and MX-400, FUJIFILM VisualSonics, Inc.) was positioned laterally overtop the hindlimb knee joint. The integrated fiber bundle delivered 15 to 20 mJ/cm^2 of light to the hindlimb of the mouse.
There are a number of TCO-derived molecules, including antibodies and small molecules, that are available for use as targeting vectors.^16,17,18,19 For a proof of concept study, compound 5 was combined with a TCO-derived bisphosphonate (TCO-BP (6)). TCO-BP has been used to target radiolabeled tetrazines to sites of high calcium accretion. Conveniently, the compound allows testing to be performed in inexpensive healthy mouse models since tetrazine derivatives coupled to TCO-BP should localize to elbow and knee joints where there is elevated turnover of calcium.^16,20,21 Compound 7 was prepared by mixing compounds 5 and 6 at room temperature for 10 min in quantitative yield; highlighting the ease with which new photoacoustic imaging agents can be prepared using this approach.
For in vivo studies, a group of Balb/c mice were administered the parent tetrazine 5 and a second group received the bisphosphonate derivative 7.

[5] = stability of 5 in plasma (HPLC); assay type: in vitro ADME; settings: murine plasma at 37° C.
Experimental: Compound 5 was prepared from the commercially available dye IR-783, which is known to produce a strong photoacoustic signal, in only two steps. The first step involved the preparation of the IR-783-aldehyde 3 which was done successfully using a Suzuki-Miyaura coupling between 1 and 2 in the presence of Pd(PPh3)4 and Cs2CO3. A significant number of different catalysts, bases and reaction conditions were screened to maximize the yield of 3 (96%). The aldehyde was subsequently coupled to tetrazine 4, prepared using a literature procedure,^14 to form the hydrazone 5. Following characterization by nuclear magnetic resonance (NMR) spectroscopy, high resolution mass spectrometry (HRMS) and high performance liquid chromatography (HPLC), the stability of 5 in plasma was evaluated.

[6] = biodistribution study (gamma counting of tissues and fluids); assay type: in vivo, BALB/c mice
Experimental: FIG. 11 is a plot showing biodistribution data for selected fluids and tissues for TCO-BP labeled with ^99mTc and coupled to a dye-tetrazine conjugate according to an embodiment of the present application. Experiments were performed using Balb/c mice (n=3 per time point) and tissues and fluids were collected at 1, 3, 6, and 24 h post administration. Data are expressed as the mean percent injected dose per gram (% ID g−1)±SEM.
(upper plot) and fluorescence spectra and intensity data for blood samples (n=3 for each time point) following the administration of TCO-BP labeled with ^99mTc and coupled to a dye-tetrazine conjugate according to an embodiment of the present application taken at 1, 3, 6, and 24 h p.i. (lower plot).
Biodistribution studies were performed using female BALB/c mice (Charles River, Kingston, N.Y.) at the indicated time points. The mice were administered the agents via tail vein injection with the final volume not exceeding 200 μL. A 5 mg/mL solution of compound 9 (see Scheme 2, below) in 10% ethanol in saline was administered at a dose of 20 mg/kg to all mice (approximately 518 kBq of 9). For all studies, at 1, 3, 6, or 24 h post-injection of the labeled compound, the animals were euthanized by cervical dislocation. Fluids, bone (knee and shoulder), and select tissues were collected, weighed, and counted in a PerkinElmer Wizard 1470 automatic gamma counter. Decay correction was used to normalize organ activity measurements to time of dose preparation for data calculations. Data is expressed as percent injected dose per gram tissue or fluid (% ID/g) or percent injected dose per organ (% ID/O).
Mice were administered 9 (518 kBq) and sacrificed at […] post injection where fluids, bone (knee, shoulder), and other key tissues were collected, weighed, and counted in a gamma counter. The resulting data is shown in FIG. 11 and expressed as percent injected dose per gram of tissue or fluid (% ID g^−1).

[7] = test system: plasma proteins; assay: plasma binding study; assay type: in vitro ADME; settings: for Pellet: activity in protein pellet; for Supernatant: activity in supernatant
From the text: FIG. 13 is a plot showing the results of a plasma binding study of TCO-BP labeled with ^99mTc and coupled to a dye-tetrazine conjugate according to an embodiment of the present application. […]

[8] = comparison value for ICG; cited from earlier work

T1 sequence (P02769 25-607): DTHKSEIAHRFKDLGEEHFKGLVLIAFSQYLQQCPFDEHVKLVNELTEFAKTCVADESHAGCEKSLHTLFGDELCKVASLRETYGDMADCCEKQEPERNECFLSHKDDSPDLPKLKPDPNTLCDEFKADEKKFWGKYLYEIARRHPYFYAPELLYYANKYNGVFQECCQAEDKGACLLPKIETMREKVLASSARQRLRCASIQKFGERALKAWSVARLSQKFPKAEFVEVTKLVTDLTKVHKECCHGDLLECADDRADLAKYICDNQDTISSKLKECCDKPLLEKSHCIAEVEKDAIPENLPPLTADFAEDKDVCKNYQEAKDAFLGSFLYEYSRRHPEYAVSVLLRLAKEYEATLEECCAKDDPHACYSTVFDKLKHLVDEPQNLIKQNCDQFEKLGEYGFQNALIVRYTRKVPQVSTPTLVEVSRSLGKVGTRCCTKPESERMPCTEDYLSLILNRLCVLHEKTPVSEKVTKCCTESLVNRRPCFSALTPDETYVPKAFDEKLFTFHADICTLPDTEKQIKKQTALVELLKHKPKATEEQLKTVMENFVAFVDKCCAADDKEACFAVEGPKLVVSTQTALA

CC1(C)C(/C=C/C2=C(c3ccc(/C=N/Nc4ccc(C(=O)NCc5ccc(-c6nncnn6)cc5)cn4)cc3)C(=C/C=C3\N(CCCCS(=O)(=O)[O-])c4ccccc4C3(C)C)/CCC2)=[N+](CCCCS(=O)(=O)O)c2ccccc21 [Compound 5]
albumin binding [1]: dye binding to a hydrophobic binding site of albumin
increase in signal intensity in the tumor [2]: 2.3 ×
solubility [3]: 5000 µg/mL (≈ 4.54 mM)
photoacoustic signal in the knee (or shoulder) joints [4]: did not show any significant signal
reactivity of the tetrazine towards TCO-derivatives after plasma incubation ([5]; 24 h): remained reactive towards trans-cyclooctene (TCO)-derivatives
stability in plasma (degradation) ([5]; out to 24 h): no signs of degradation

CC1(C)C(/C=C/C2=C(c3ccc(/C=N/Nc4ccc(C(=O)NCc5ccc(C6=NNC=C7CCC(OC(=O)NCCCC(O)(P(=O)(O)O)P(=O)(O)O)CCCC76)cc5)cn4)cc3)C(=C/C=C3\N(CCCCS(=O)(=O)[O-])c4ccccc4C3(C)C)/CCC2)=[N+](CCCCS(=O)(=O)O)c2ccccc21 (centres unmarked) [Compound 7]
uptake in the leg, images ex vivo ([4]; ex vivo leg after 1 hour post-injection imaging): intense uptake
photoacoustic signal in the knee (or shoulder) joints [4]: significant signal

CC1(C)C(/C=C/C2=C(c3ccc(/C=N/Nc4ccc(C(=O)NCc5ccc(C6=NNC=C7CCC(OC(=O)NCCCC8(O)P(=O)(O)[O][Tc]9([OH])([OH])([O]P(=O)(O)C(O)(CCCNC(=O)OC%10CC/C=C/CCC%10)P(=O)(O)[O]9)[O]P8(=O)O)CCCC76)cc5)cn4)cc3)C(=C/C=C3\N(CCCCS(=O)(=O)[O-])c4ccccc4C3(C)C)/CCC2)=[N+](CCCCS(=O)(=O)[O][Na])c2ccccc21 (centres unmarked) [Compound 9]
blood level relative to [99mTc]Tc-TCO-BP alone ([6]; 1 h): 20 ×
activity in the blood ([6]; 1 h post injection): over 15 % ID g^−1
blood level relative to [99mTc]Tc-TCO-BP alone ([6]; 6 h): 187 ×
blood half-life ([6]; determined using radioactive counting): 3.2 h
Pellet ([7]; 0 h): 32.79
Pellet ([7]; 0.5 h): 36.10
Pellet ([7]; 1 h): 47.53
Pellet ([7]; 2 h): 45.29
Pellet ([7]; 3 h): 47.72
Pellet ([7]; 4 h): 46.88
Pellet ([7]; 6 h): 47.83
Supernatant ([7]; 0 h): 52.00
Supernatant ([7]; 0.5 h): 53.44
Supernatant ([7]; 1 h): 47.27
Supernatant ([7]; 2 h): 49.35
Supernatant ([7]; 3 h): 46.82
Supernatant ([7]; 4 h): 47.42
Supernatant ([7]; 6 h): 47.46
activity in the supernatant ([7]; after 1 hour): 50%
activity present in the pellet containing the proteins ([7]; after 1 hour): 50%

CC1(C)C(/C=C/C=C/C=C/C=C2\N(CCCCS(=O)(=O)O)c3ccc4ccccc4c3C2(C)C)=[N+](CCCCS(=O)(=O)[O-])c2ccc3ccccc3c21 [ICG, indocyanine green]
concentration that can be achieved [8]: 1000 µg/mL
